Like-named read-outs stand apart in the source and are kept apart here.
Tests used:
[1] = Surfactant Log P estimate by reversed phase HPLC
Experimental: Reversed phase HPLC was performed on all samples. Samples were filtered through Gelman 0.45 um PVDF filters and analyzed. Almost all separations were utilized the following conditions:
Column: Supelcosil LC-18 column, 15 cm×4.6 mm, 5 um particle size (Supelco, Bellefonte, Pa.).
Flow: 1 ml/min. Temperature: ambient Injection Volume: 50 ul Mobile Phase A: 70:30 methanol: water (v+v) with 10 mM ammonium acetate.
Mobile Phase B: 100% methanol.
The ELSD was operated at 40° C., with a nitrogen flow rate of 1.8 l/min. A Chromeleon Chromatography Data system (Dionex Corp. Sunnyvale, Calif.) was used to collect and process the HPLC data.
A reversed phase HPLC method was used to estimate surfactant Log P values. The HPLC capacity factor, k′, for each material was determined according to the equation: […]
The column void time was determined from the elution time of unretained salt. […] (FIG. 6).
The reversed phase HPLC separation used herein separates primarily based on the size of the hydrophobe. […] The peak maximum retention time was used to determine the Log P estimate for surfactants with either the narrow or the broad single peak profiles. […] (FIG. 7). […] In addition, the retention time of the individual hydrophobe peaks was used to calculate Log P values for these oligomers.

[2] = Membrane filtration permeability, unsoiled system; format: physicochemical
From the text: (§1) A Membrex Benchmark GX (Fairfield, N.J.) lab-scale rotating membrane filtration unit was used for all permeability studies. Membrane cartridges were made of polyacrylonitrile with a 0.05 um pore size (Part #0567, Osmonics Corp., Minnetonka, Minn.).
(§2) One to two liters of the aqueous alkaline solution of the present invention in its diluted form, usually including 0.15% surfactant and 0.05% potassium carbonate, was placed in both the customer (or initial) and holding tanks (appropriately sized glass beakers). For experiments with soil, oil was added at a 1% level to both tanks. The tanks were heated with magnetic stirring on hotplates to either 140° F. or 100° F. The temperature was maintained throughout each experiment with RTD temperature probes interfaced to the hotplates. The rotation rate of the membrane filtration unit was 3000 RPM. Material from the holding tank was pumped into the membrane filtration unit at a flow of 600 ml/min. The outlet pressure was adjusted to achieve a 5 psi pressure drop across the membrane, resulting in permeate flows of approximately 100-300 ml/min depending on the soil and the operating temperature. The transfer line from the customer tank to the holding tank was adjusted to equal the permeate flow rate in order to maintain a constant level in both customer and holding tank. One cycle or turnover is defined to be the time at which the cumulative volume of permeate equals the initial volume of the customer tank. Permeate samples were collected at 1, 5 and/or 10 cycles.
(§3) A 0.05 um PAN membrane was used in the filtration.
(§4) Surfactant levels in permeate samples were determined by TOC (unsoiled studies only) and by HPLC/ELSD.
(§5) A sample of the initial cleaning solution was collected before addition of oil (if added) and before starting membrane operation. This initial cleaning soultion sample is defined to be the 100% permeable concentration. Serial dilutions of the 100% permeable sample were made to obtain calibration samples for the HPLC analysis. Point-to-point calibration curves were used for HPLC quantitation due to the non-linear nature of the ELSD response. For TOC analysis the initial cleaning solution sample was used for the single point calibration. For surfactants with multiple surfactant oligomers, individual oligomer permeability and overall surfactant permeability were determined. The overall surfactant permeability was calculated from the average of the oligomer results, except for Surfonic® L108/85-5 where the result for major C8 hydrophobe was used.

[3] = Membrane filtration permeability, Pennzoil 80W90 soiled system; format: physicochemical; settings: 1% oil, 140° F., HPLC
From the text: as §1, §2, §3, §4, §5
(§6) Example 3 was performed in the same way as Example 2 but in the presence of soil. The method described in Example 2 was followed in Example 3. The permeability performance of surfactants in soiled systems is of interest given the desire to separate the aqueous cleaning materials from soil. Two oils were evaluated in this study: Cosmoline® 1102 and Pennzoil® 80W90 oil.

[4] = 1% aqueous solutions, Table H; cited from earlier work
[5] = Membrane filtration permeability, Cosmoline 1102 soiled system; format: physicochemical; settings: 1% oil, 140° F., HPLC
From the text: as §1, §2, §3, §4, §5, §6
The permeability of four surfactants was evaluated at 100° F. in the presence of 1% Cosmoline® 1102 oil. […] The results are listed in Table N and are plotted in FIG. 26 with a comparison to the 140° F. results.

[6] = known values used for calibration; cited from earlier work
[7] = unsoiled, Cycle 5, 140° F., HPLC (Table M)
[8] = single peak or individual hydrophobe peak, alkyl benzene standards
[9] = unsoiled, Cycle 1, 0.05 um PAN membrane
[10] = unsoiled, Cycle 5, 0.05 um PAN membrane
[11] = unsoiled, Cycle 10, 0.05 um PAN membrane

Molecule | Permeability, Pennzoil80W90-Cycle 5 [3] | Cloud Point (° C.) [4] | Permeability, Cosmoline 1102-Cycle 5 [5] | LogP, HPLC estimate [1] | % Permeability ([2]; not told) | further results
CCCCCCCCCCCC[N+](C)(C)[O-] [Barlox ® 12, dodecyl dimethyl amine oxide] | 63% | None |  |  |  | chromatographic logP [1]: 4.5; % Permeability [2, 7]: 80%
CCCCCCCC[N+](C)(C)[O-] [Mackamine ® C8, linear octyl dimethyl amine oxide] | 95% | None | 95% |  |  | LogP, HPLC estimate [1, 8]: 2.5; % Permeability (HPLC) [2, 9]: 104%; % Permeability (TOC) [2, 9]: 101%; % Permeability (HPLC) [2, 10]: 105%; % Permeability (TOC) [2, 10]: 108%; % Permeability [2, 7]: 105%; % Permeability (HPLC) [2, 11]: 102%; % Permeability (TOC) [2, 11]: 117%; Permeability, Cosmoline 1102-Cycle 1 [5]: 94%; Permeability, Cosmoline 1102-Cycle 10 [5]: 99%
CCCCCCCCCC[N+](C)(C)[O-] [Mackamine ® C10, linear decyl dimethyl amine oxide] |  | None | 53% |  |  | LogP, HPLC estimate [1, 8]: 3.4
CCc1ccccc1 [ethyl benzene] |  |  |  |  |  | Log P of alkylbenzene retention time standards [6]: 3.13
CCCCCCc1ccccc1 [hexyl benzene] |  |  |  |  |  | Log P of alkylbenzene retention time standards [6]: 5.24
CCCCCCCCc1ccccc1 [octyl benzene] |  |  |  |  |  | Log P of alkylbenzene retention time standards [6]: 6.30
C8 mono-glucoside [Glucopon ® 425/C8] | 97% |  | 74% | 2.5 | 104% | 
C10 mono-glucoside [Glucopon ® 425/C10] | 77% |  | 22% | 3.2 | 87% | 
C12 mono-glucoside [Glucopon ® 425/C12] | 49% |  | <20% | 4.3 | 44% | 
C14 mono-glucoside [Glucopon ® 425/C14] | 39% |  | <20% | 5.2 | 35% | 
cocamidopropyl betaine ammonium salt [Foamtaine ® CAB-A] |  | None | 9% | 3.6 |  | 
